Results reported in US20230159527A1, “COMPOUNDS AS BCL-2 INHIBITORS” (Fochon Pharmaceuticals, Ltd., priority 2020, published 2023).

These compounds were tested on Toledo cells (assay: Cell proliferation assay, Toledo cells (MTS, 72 h)). Conditions: Homo sapiens, Toledo cells, MTS, read-out: Toledo IC50.
Type: cell-based
Method: MTS testing kit was purchased from Promega (Madison, Wis., USA). The RPMI-1640, Fetal bovine serum and Penicillin-Streptomycin were purchased from BI (Biological Industries, Beit Haemek, Israel). Dimethyl sulfoxide (DMSO) was purchased from Sigma (St. Louis, Mo., USA). Toledo (ATCC catalog #: CRL-2631) cells were cultured in RPMI-1640 supplemented with Penicillin-Streptomycin and 10% FBS.
To investigate whether a compound is able to inhibit the activity of BCL-2 in cells, a mechanism-based assay using Toledo lines was developed. In this assay, the inhibition of BCL-2 was reflected by the inhibition of cell proliferation of Toledo cells. Cells were plated into 96-well plates at the optimized cell density of 30000 cells/well. Plates were incubated at 37° C., with 5% CO2 for 4h. Compounds were serially diluted and added to the plates with the final concentrations of 10000, 3333.3, 1111.1, 370.4, 123.5, 41.2, 13.7, 4.6 and 1.5 nM. Plates were incubated at 37° C., with 5% CO2 for 72 h. 20 μl MTS was added into each well and the plates were incubated at 37° C., with 5% CO2 for exactly 2 h. The absorbance was measured by a microplate reader at 490 nm. IC50 was calculated using GraphPad Prism 5.0 software.
Work on `CC(C)c1ccccc1[C@@H]1CCC(=O)N1C1CC2(CCN(c3ccc(C(=O)NS(=O)(=O)c4cc5c(c([N+](=O)[O-])c4)N[C@@H]([C@H]4CC[C@](C)(O)CC4)CO5)c(Oc4cnc5[nH]cc(F)c5c4)c3)CC2)C1` [Example D-257, 2-((3-fluoro-1H-pyrrolo[2,3-b]pyridin-5-yl)oxy)-N-(((S)-3-((1r,4S)-4-hydroxy-4-methylcyclohexyl)-5-nitro-3,4-dihydro-2H-benzo[b] [1,4]oxazin-7-yl)sulfonyl)-4-(2-((S)-2-(2-isopropylphenyl)-5-oxopyrrolidin-1-yl)-7-azaspiro[3.5]nonan-7-yl)benzamide] yielded an IC50 of 1 nM. Work on `CC(C)c1ccccc1[C@@H]1COCCN1C1CC2(CCN(c3ccc(C(=O)NS(=O)(=O)c4cnc(NC[C@H]5CC[C@](C)(O)CC5)c([N+](=O)[O-])c4)c(Oc4cc5cc[nH]c5nc4OC(F)F)c3)CC2)C1` (single isomer, unassigned) [Example A-126, 2-((6-(difluoromethoxy)-1H-pyrrolo [2,3-b]pyridin-5-yl)oxy)-N-((6-((((1r,4r)-4-hydroxy-4-methylcyclo-hexyl)methyl)amino)-5-nitropyridin-3-yl)sulfonyl)-4-(2-((R or S)-3-(2-isopropylphenyl)morpholino)-7-azaspiro[3.5]nonan-7-yl) benzamide] yielded an IC50 of 1 nM. `CC(C)c1ccccc1[C@@H]1CC[C@H](CO)N1C1CC2(CCN(c3ccc(C(=O)NS(=O)(=O)c4cc5c(c([N+](=O)[O-])c4)N[C@@H]([C@H]4CC[C@](C)(O)CC4)CO5)c(Oc4cnc5[nH]cc(F)c5c4)c3)CC2)C1` [Example D-254, 2-((3-fluoro-1H-pyrrolo[2,3-b]pyridin-5-yl)oxy)-N-(((S)-3-((1r,4S)-4-hydroxy-4-methylcyclohexyl)-5-nitro-3,4-dihydro-2H-benzo[b] [1,4]oxazin-7-yl)sulfonyl)-4-(2-((2R,5S)-2-(hydroxymethyl)-5-(2-isopropylphenyl)pyrrolidin-1-yl)-7-azaspiro[3.5]nonan-7-yl)benzamide] was tested, and the IC50 was 1 nM. For `CC(C)c1ccccc1[C@@H]1CCC[C@@H]1N1CC2(CCN(c3ccc(C(=O)NS(=O)(=O)c4cc5c(c([N+](=O)[O-])c4)N[C@@H]([C@H]4CC[C@](C)(O)CC4)CO5)c(Oc4cc5cc[nH]c5nc4OC[C@@H]4COCCO4)c3)CC2)C1` (single isomer, unassigned) [Example D-258, 2-((6-(((S)-1,4-dioxan-2-yl)methoxy)-1H-pyrrolo[2,3-b]pyridin-5-yl)oxy)-N-((S)-3-((1r,4S)-4-hydroxy-4-methylcyclohexyl)-5-nitro-3,4-dihydro-2H-benzo[b][1,4]oxazin-7-yl)sulfonyl)-4-(2-((1S,2S or 1R,2R)-2-(2-isopropylphenyl)cyclopentyl)-2,7-diazaspiro[3.5] nonan-7-yl)benzamide], the IC50 was 1 nM. `CC(C)c1ccccc1[C@@H]1CCCN1C1CC2(CCN(c3ccc(C(=O)NS(=O)(=O)c4cc5c(c([N+](=O)[O-])c4)N[C@@H](C4CCC(O)CC4)CO5)c(Oc4cnc5[nH]cc(F)c5c4)c3)CC2)C1` (single isomer, unassigned) [Example D-40, 2-((3-fluoro-1H-pyrrolo[2,3-b]pyridin-5-yl)oxy)-N-(((S)-3-((1s,4R)-4-hydroxycyclohexyl)-5-nitro-3,4-dihydro-2H-benzo[b][1,4]oxazin-7-yl)sulfonyl)-4-(2-((R or S)-2-(2-isopropylphenyl)pyrrolidin-1-yl)-7-azaspiro[3.5]nonan-7-yl)benzamide] showed an IC50 of 1 nM. In the case of `COCCNc1nc2[nH]ccc2cc1Oc1cc(N2CCC3(CC2)CC(N2CCC[C@H]2c2ccccc2C(C)C)C3)ccc1C(=O)NS(=O)(=O)c1cc2c(c([N+](=O)[O-])c1)N[C@@H]([C@H]1CC[C@](C)(O)CC1)CO2` (single isomer, unassigned) [Example D-56, N-(((S)-3-((1r,4S)-4-hydroxy-4-methylcyclohexyl)-5-nitro-3,4-dihydro-2H-benzo[b][1,4]oxazin-7-yl)sulfonyl)-4-(2-((R or S)-2-(2-isopropylphenyl)pyrrolidin-1-yl)-7-azaspiro[3.5]nonan-7-yl)-2-((6-((2-methoxyethyl)amino)-1H-pyrrolo[2,3-b]pyridin-5-yl)oxy)benzamide], the IC50 is reported as 1 nM. Work on `CC(C)c1ccccc1[C@@H]1COCCN1C1CC2(CCN(c3ccc(C(=O)NS(=O)(=O)c4cnc(NC[C@H]5CC[C@](C)(O)CC5)c([N+](=O)[O-])c4)c(Oc4cnc5[nH]ccc5c4)n3)CC2)C1` (single isomer, unassigned) [Example A-145, 2-((1H-pyrrolo[2,3-b]pyridin-5-yl)oxy)-N-((6-((((1r,4r)-4-hydroxy-4-methylcyclohexyl)methyl)amino)-5-nitropyridin-3-yl)sulfonyl)-6-(2-((R or S)-3-(2-isopropylphenyl)morpholino)-7-azaspiro[3.5]nonan-7-yl)nicotina-mide] yielded an IC50 of 1 nM. For `CC(C)c1ccccc1[C@@H]1CN(S(=O)(=O)C2CC2)CCN1C1CC2(CCN(c3ccc(C(=O)NS(=O)(=O)c4cc5c(c([N+](=O)[O-])c4)N[C@@H]([C@H]4CC[C@](C)(O)CC4)CO5)c(Oc4cnc5[nH]cc(F)c5c4)c3)CC2)C1` (single isomer, unassigned) [Example D-81, 4-(2-((R or S)-4-(cyclopropylsulfonyl)-2-(2-isopropylphenyl)piperazin-1-yl)-7-azaspiro[3.5]nonan-7-yl)-2-((3-fluoro-1H-pyrrolo[2,3-b]pyridin-5-yl)oxy)-N-(((S)-3-((1r,4S)-4-hydroxy-4-methylcyclohexyl)-5-nitro-3,4-dihydro-2H-benzo[b][1,4]oxazin-7-yl)sulfonyl)benzamide], the IC50 was 1 nM. `CC(C)c1ccccc1[C@@H]1CCCN1C1CC2(CCN(c3ccc(C(=O)NS(=O)(=O)c4cc5c(c([N+](=O)[O-])c4)N[C@H]([C@H]4CC[C@H](O)CC4)CO5)c(Oc4cnc5[nH]cc(F)c5c4)c3)CC2)C1` (single isomer, unassigned) [Example D-42, 2-((3-fluoro-1H-pyrrolo[2,3-b]pyridin-5-yl)oxy)-N-(((R)-3-((1r,4R)-4-hydroxycyclohexyl)-5-nitro-3,4-dihydro-2H-benzo[b][1,4]oxazin-7-yl)sulfonyl)-4-(2-((R or S)-2-(2-isopropylphenyl)pyrrolidin-1-yl)-7-azaspiro[3.5]nonan-7-yl)benzamide] gave an IC50 of 1 nM. With `CC(C)c1ccccc1[C@@H]1CCCN1C1CC2(CCN(c3ccc(C(=O)NS(=O)(=O)c4cc5c(c([N+](=O)[O-])c4)N[C@@H]([C@H]4CC[C@](C)(O)CC4)CO5)c(Oc4cc5cc[nH]c5nc4OC[C@H]4CCN4C(=O)OC(C)(C)C)c3)CC2)C1` (single isomer, unassigned) [Example D-213, tert-butyl (R)-2-(((5-(2-(((S)-3-((1r,4S)-4-hydroxy-4-methylcyclohexyl)-5-nitro-3,4-dihydro-2H-benzo[b][1,4]oxazin-7-yl)sulfonyl)carbamoyl)-5-(2-((R or S)-2-(2-isopropylphenyl)pyrrolidin-1-yl)-7-azaspiro[3.5]nonan-7-yl)phenoxy)-1H-pyrrolo[2,3-b]pyridin-6-yl)oxy)methyl)azetidine-1-carboxylate] the IC50 was 1 nM.
